Data published in patent publication EP3452027B1, “USE OF […] TREAT SEA LICE” (priority 2016, dated 2017).
Converted amounts (≈) assume the structure as drawn. Like-named read-outs stand apart in the source and are kept apart here.

Tests used:
fish embryos = conditions: 100µM bergapten; cited from earlier work
[1] = test system: Lepeophtheirus salmonis sea lice
[2] = test system: Lepeophtheirus salmonis sea lice; experiment: whole plant or invertebrate; conditions: 24 h
Argulus = conditions: for Argulus detachment from goldfish and koi carp: after two hours

SMILES	fish embryos killed (fish embryos)	remaining viable embryos with defects in anterior-posterior patterning (fish embryos)	concentrations at which no viable sea lice were observed ([1]; 24 hours post-exposure, microscopic observation) [mg/L]	Males EC90 ([1]; adult male L. salmonis, 24 hours post exposure) [µg/mL]	Females LC50 ([1]; female, Lepeophtheirus salmonis (sea louse), in vivo) [µg/mL]	Males LC50 ([1]; male, Lepeophtheirus salmonis (sea louse), in vivo) [µg/mL]	EC50 ([2]; read-out: Females EC50) [µg/mL]	EC90 ([2]; read-out: Females EC90, adult female (pre-ovigerous) L. salmonis, 24 hours post exposure) [µg/mL]	LC50 ([2]; read-out: Females LC50) [µg/mL]	LC50 ([2]; read-out: LC50 for the total sea lice population (dose that would kill 50% of the total population)) [µg/mL]	EC50 ([2]; read-out: Males EC50) [µg/mL]	EC90 ([2]; read-out: Males EC90, adult male L. salmonis, 24 hours post exposure) [µg/mL]	LC50 ([2]; read-out: Males LC50) [µg/mL]	Argulus detachment from goldfish and koi carp (Argulus; 2ppm nootkatone in tap water)	Argulus detachment from goldfish and koi carp (Argulus; 6ppm nootkatone in tap water)	mortality of Argulus (Argulus; in vivo) [%]
COc1c2ccoc2cc2oc(=O)ccc12 [bergapten, 5-methoxypsoralen]	one third	half														
C=C(C)[C@@H]1CCC2=CC(=O)C[C@@H](C)[C@]2(C)C1 [nootkatone]			≥ 38	24.27	9.70	16.40	9.17 (≈ 42 µM)	13.4 (≈ 61.5 µM)	9.69 (≈ 44.4 µM)	13.5 (≈ 62 µM)	11.5 (≈ 52.9 µM)	24.3 (≈ 111 µM)	16.4 (≈ 75.1 µM)	no parasites could be seen	no parasites could be seen	100
